Experimental data taken from patent US20250114377A1, “TWO-PRONGED TREATMENT FOR NIEMANN PICK TYPE C DISEASE” (UNIVERSITY OF NOTRE DAME DU LAC, priority 2022, published 2025).

Tests used:
lysosomal tubulation = experiment: Rescue of lysosomal tubulation with purified oxysterols in LDL-depleted media (FIG. 4); assay type: cell-based; settings: media depleted of LDL supplemented with the oxysterol; 24-HC p<0.005, 25-HC p<0.0001
Experimental: FIG. 4. Rescue of Lysosomal Tubulation with Purified Oxysterols. Measurements of lysosomal tubulation comparing control complete media (Control) to media depleted of LDL (LDL−) and depleted media supplemented with 27-hydroxycholesterol (27-HC), 24-hydroxycholesterol (24-HC) or 25-hydroxycholesterol (25-HC).
Fixed and live-cell imaging was performed on COS-7 cells grown in Dulbecco's Modified Eagle's Medium (DMEM) supplemented with 10% fetal bovine serum, 1% L-glutamine, and penicillin/streptomycin (Sigma-Aldrich). Transfections were performed using either Lipofectamine (Life Technologies), X-treme Gene DNA Transfection reagent (Roche, Indianapolis, IN) or Nanofect (Allstem, Richmond, CA). J774A.1 mouse macrophages were provided and cultured in the same media. Cells were tested for contamination using PCR-based test kits (Sartorius, Inc.; Cat #SMB95-1001).
Microscopy experiments were performed on a Zeiss Axiovert 200M (Thornwood, NY) run by Metamorph software (Sunnyvale, CA). Fixed and live cell imaging data was collected using either a Photometrics Coolsnap HQ or Cascade 1k CCD camera (Tucson, AZ). Timelapse imaging of cells expressing NPC1-EGFP and mCherry-StARD9 utilized a Dual-view camera (Photometrics) adapter to allow simultaneous acquisition of green and red channels at each timepoint. Kymographs were generated in Metamorph using a 1p m slice from each frame.
To test this idea, we treated either NPC1 mutant (null or I1061T) or StARD9 mutant (null or truncation mutant) cells with 27-HC in a cocktail that delivers it into the cytoplasm independent of receptor-mediated endocytosis. […] Next, we treated NPC1(−/−) mice with 27-HC by i.p. delivery.

[1] = system: LE/L membrane tubule projection, COS-7 cells; experiment: LE/L tubule projection of NPC1-containing membranes with microtubule drugs; assay type: cell-based; settings: FP-tagged NPC1 membranes, live-cell imaging
Source text: Although it is well-accepted that mutations in NPC1 are responsible for ˜95% of human cases of NPC disease, there is less consensus on the specific cellular activities NPC1 is responsible for. For example, both the N-terminal domain and the sterol-sensing domain of NPC1 are thought to bind cholesterol and mediate the movement of lumenal cholesterol across the limiting membrane of LE/Ls. However, the lipids that over-accumulate in NPC disease are not limited to cholesterol and include oxysterols, sphingolipids, gangliosides and GPI-anchored proteins. Furthermore, the pathological accumulations of cholesterol have been proposed to affect the functional state of LE/Ls directly, including perturbing calcium uptake, autophagy/mitophagy and the thickness of the glycocalyx. However, the specific ways in which NPC1 mutations affect these parameters remain unclear. With this wide range of unknowns in mind, we generated a FP-tagged NPC1 plasmid construct for expression in mammalian cells. […] Also overlapping with previous observations, LE/L membranes incorporating FP-tagged NPC1 projected a population of long, slender, dynamic membrane tubules that emerged from the surface of stationary LE/Ls and extended towards the cell periphery (See Sterling, FIG. 1A and Sup Vid. 1). […]

Structure (SMILES): CC(C)C(O)CC[C@@H](C)[C@H]1CC[C@H]2[C@@H]3CC=C4C[C@@H](O)CC[C@]4(C)[C@H]3CC[C@]12C (stereo partly shown) [24-HC, 24-hydroxycholesterol]
- Rescue of lysosomal tubulation compared with 27-HC (lysosomal tubulation): significantly lower that 27-HC

Structure (SMILES): C[C@H](CCCC(C)(C)O)[C@H]1CC[C@H]2[C@@H]3CC=C4C[C@@H](O)CC[C@]4(C)[C@H]3CC[C@]12C [25-HC, 25-hydroxycholesterol]
- Rescue of lysosomal tubulation compared with 27-HC (lysosomal tubulation): significantly lower that 27-HC

Structure (SMILES): COC(=O)Nc1nc2ccc(C(=O)c3cccs3)cc2[nH]1 [nocodazole]
- Effect on LE/L tubule projection [1]: inhibited

Structure (SMILES): CC(=O)O[C@H]1C(=O)[C@@]2(C)[C@H]([C@H](OC(=O)c3ccccc3)[C@]3(O)C[C@H](OC(=O)[C@H](O)[C@@H](NC(=O)c4ccccc4)c4ccccc4)C(C)=C1C3(C)C)[C@]1(OC(C)=O)CO[C@@H]1C[C@@H]2O [taxol]
- Effect on LE/L tubule projection [1]: inhibited
